These compounds were tested against T1, influenza A virus (IAV) PA-Nter fragment (amino acids 1-209) harbouring the influenza endonuclease activity (Influenza A virus, UniProt P31343) (assay: FRET endonuclease activity assay). Details: @ 10 μM; compound-treated compared to untreated.
T1 construct: PA-Nter fragment (amino acids 1-209); made in house
Assay type: biochemical
With `O=C(NCc1ccc(Cl)cc1)c1nc(Cc2ccccc2Br)nc(O)c1O` the “FRET % reduction of v0” value was 37% @ 10 μM.
`COC(=O)c1c(O)c(=O)nc(Cc2ccccc2Br)n1Cc1ccccc1` was tested, and the “FRET % reduction of v0” value was 23% @ 10 μM.
In the case of `COC(=O)c1nc(CC2CCCCC2)n(C)c(=O)c1O`, the “FRET % reduction of v0” value is reported as 25% @ 10 μM.

Same assay, conditions: calculated from initial reaction velocities (v0); 0.5 μM PA-Nter, 1.6 μM RNA substrate
Work on `O=C(NCc1ccc(F)cc1)c1nc(Cc2ccccc2Br)nc(O)c1O` yielded an IC50 of 27000 nM.
For `CNC(=O)c1nc(Cc2ccccc2Br)nc(O)c1O`, the IC50 was 5700 nM.
`COC(=O)c1c(O)c(=O)nc(Cc2ccccc2)n1Cc1ccccc1` showed an IC50 of 19000 nM.
With `O=C(O)c1c(O)c(=O)nc(Cc2ccccc2Br)n1Cc1ccccc1` the IC50 was 5700 nM.
With `O=C(O)c1nc(Cc2ccccc2Br)nc(O)c1O` the IC50 was 250 nM.
Compound `CNC(=O)c1nc(NS(=O)(=O)Cc2cccc(C)c2)n(C)c(=O)c1O` has an IC50 of 6800 nM.
`COC(=O)c1nc(CC2(c3ccccc3)CCCC2)nc(O)c1O` gave an IC50 of 410 nM.
Compound `Cn1c(CC2(c3ccccc3)CCCC2)nc(C(=O)O)c(O)c1=O` has an IC50 of 260 nM.
Compound `Cn1c(NS(=O)(=O)Cc2ccc(Cl)cc2)nc(C(=O)O)c(O)c1=O` has an IC50 of 540 nM.
Work on `CNC(=O)c1nc(Cc2ccccc2-c2ccccc2)nc(O)c1O` yielded an IC50 of 660 nM.
Work on `O=C(NCc1ccccc1)c1nc(Cc2ccccc2-c2ccccc2)nc(O)c1O` yielded an IC50 of 16000 nM.
`O=C(O)c1nc(CC2CCCCC2)nc(O)c1O` was tested, and the IC50 was 210 nM.
`CNC(=O)c1nc(CC2CCCCC2)nc(O)c1O` showed an IC50 of 6500 nM.
Work on `CNC(=O)c1nc(NS(=O)(=O)Cc2ccccc2)n(C)c(=O)c1O` yielded an IC50 of 3000 nM.
For `Cc1ccccc1-c1ccccc1Cc1nc(O)c(O)c(C(=O)O)n1`, the IC50 was 240 nM.
`O=C(O)c1nc(Cc2ccccc2-c2ccccc2)nc(O)c1O` gave an IC50 of 40 nM.
`CNC(=O)c1nc(NS(=O)(=O)Cc2ccc(C)cc2)n(C)c(=O)c1O` showed an IC50 of 13000 nM.
With `O=C(O)c1nc(CC2(c3ccccc3)CCCC2)nc(O)c1O` the IC50 was 80 nM.
With `Cc1ccccc1Cc1nc(O)c(O)c(C(=O)O)n1` the IC50 was 270 nM.
With `CNC(=O)c1nc(Cc2ccccc2-c2cc(C)ccc2C)nc(O)c1O` the IC50 was 530 nM.
For `CCOC(=O)c1nc(CC2CCCCC2)nc(O)c1O`, the IC50 was 3200 nM.
With `O=C(NCc1ccc(F)cc1)c1nc(Cc2ccccc2-c2ccccc2)nc(O)c1O` the IC50 was 1700 nM.
For `CCCNC(=O)c1nc(Cc2ccccc2-c2ccccc2)nc(O)c1O`, the IC50 was 8800 nM.
Work on `NC(=O)c1nc(CC2(c3ccccc3)CCCC2)nc(O)c1O` yielded an IC50 of 240 nM.
`NC(=O)c1nc(Cc2ccc(F)cc2Br)nc(O)c1O` was tested, and the IC50 was 2700 nM.
`O=C(c1nc(Cc2ccccc2-c2ccccc2)nc(O)c1O)N1CCCC1` was tested, and the IC50 was 1100 nM.
For `CCOC(=O)c1nc(Cc2cncn2Cc2ccccc2)nc(O)c1O`, the IC50 was 9500 nM.
With `O=C(NCc1ccccc1)c1nc(CC2(c3ccccc3)CCCC2)nc(O)c1O` the IC50 was 1100 nM.
For `CNC(=O)c1nc(NS(=O)(=O)Cc2ccc(Cl)cc2)n(C)c(=O)c1O`, the IC50 was 5800 nM.
`CNC(=O)c1nc(Cc2ccccc2-c2ccccc2)n(C)c(=O)c1O` showed an IC50 of 23000 nM.
Compound `O=C(NCCc1ccccc1)c1nc(Cc2ccccc2-c2ccccc2)nc(O)c1O` has an IC50 of 3800 nM.
Compound `O=C(O)c1nc(Cc2ccc(F)cc2Br)nc(O)c1O` has an IC50 of 180 nM.
Compound `Cc1cccc(-c2ccccc2Cc2nc(O)c(O)c(C(=O)O)n2)c1` has an IC50 of 230 nM.
Compound `COC(=O)c1nc(Cc2ccccc2-c2cccc(C)c2)nc(O)c1O` has an IC50 of 350 nM.
Compound `Cn1c(Cc2ccccc2-c2ccccc2)nc(C(=O)O)c(O)c1=O` has an IC50 of 1300 nM.
`COC(=O)c1nc(Cc2ccccc2-c2cc(C)ccc2C)nc(O)c1O` was tested, and the IC50 was 150 nM.
For `Cc1ccc(C)c(-c2ccccc2Cc2nc(O)c(O)c(C(=O)OC(C)(C)C)n2)c1`, the IC50 was 1100 nM.
Compound `CNC(=O)c1nc(CC2(c3ccccc3)CCCC2)nc(O)c1O` has an IC50 of 140 nM.
For `O=C(O)c1c(O)c(=O)nc(Cc2ccccc2)n1Cc1ccccc1`, the IC50 was 3800 nM.
With `CC(C)NC(=O)c1nc(Cc2ccccc2-c2ccccc2)n(C)c(=O)c1O` the IC50 was 14000 nM.
`Cc1cccc(-c2ccccc2Cc2nc(C(N)=O)c(O)c(=O)[nH]2)c1` gave an IC50 of 550 nM.
`CC(C)NC(=O)c1nc(Cc2cccc(Br)c2)nc(O)c1O` gave an IC50 of 23000 nM.
Work on `O=C(O)c1nc(Cc2cc(C(F)(F)F)ccc2Br)nc(O)c1O` yielded an IC50 of 160 nM.
In the case of `COC(=O)c1nc(Cc2ccccc2-c2ccccc2C)nc(O)c1O`, the IC50 is reported as 120 nM.
With `O=C(NCc1ccc(Cl)cc1)c1nc(Cc2ccccc2-c2ccccc2)nc(O)c1O` the IC50 was 1800 nM.
For `CCOC(=O)c1nc(Cc2ccccc2-c2cc(C)ccc2C)nc(O)c1O`, the IC50 was 220 nM.
`Cc1ccc(C)c(-c2ccccc2Cc2nc(O)c(O)c(C(=O)O)n2)c1` was tested, and the IC50 was 30 nM.
With `COC(=O)c1nc(Cc2ccccc2Br)nc(O)c1OC(C)=O` the IC50 was 7900 nM.
`O=C(O)c1nc(CC(c2ccccc2)c2ccccc2)nc(O)c1O` gave an IC50 of 2500 nM.
Compound `CNC(=O)c1nc(CC2(c3ccccc3)CCCC2)n(C)c(=O)c1O` has an IC50 of 410 nM.
For `CC(C)NC(=O)c1nc(Cc2ccccc2-c2ccccc2)nc(O)c1O`, the IC50 was 8200 nM.
In the case of `COC(=O)c1nc(Cc2ccc(F)cc2Br)nc(O)c1O`, the IC50 is reported as 1500 nM.
`Cn1c(Cc2ccccc2-c2ccccc2)nc(C(N)=O)c(O)c1=O` showed an IC50 of 1300 nM.

Reference: patent US8921388B2, “Dihydroxypyrimidine carbonic acid derivatives and their use in the treatment, amelioration or prevention of a viral disease” (priority 2012, dated 2014)
